Assay results: PubChem BioAssay (NCI)
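Five compound concentrations were applied to cells in 96-well plates for 48 hours; endpoints were derived by simple linear interpolation of the resulting dose-response curve. Here, GI50 denotes the concentration required for 50% inhibition of growth. Definition used: TGI = concentration required for complete inhibition of growth.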

Key:
Assay in all cases: inhibition of tumour cell growth, NCI panel, 48 h
[1] = tested on: HL-60(TB) leukemia
[2] = tested on: DMS 273 small cell lung
[3] = tested on: KM20L2 colon
[4] = tested on: COLO 205 colon
[5] = tested on: T-47D breast
[6] = tested on: BT-549 breast
[7] = tested on: HS 578T breast
[8] = tested on: NCI/ADR-RES ovarian
[9] = tested on: MDA-MB-435
[10] = tested on: LXFL 529 NSCLC

Row | Compound | TGI [1] [µM] | TGI [2] [µM] | TGI [3] [µM] | TGI [4] [µM] | GI50 [5] [µM] | TGI [5] [µM] | GI50 [1] [µM] | GI50 [6] [µM] | TGI [6] [µM] | GI50 [7] [µM] | TGI [7] [µM] | GI50 [8] [µM] | TGI [8] [µM] | GI50 [9] [µM] | TGI [9] [µM] | GI50 [4] [µM] | TGI [10] [µM]
1 | CC(C)(C)[Si](Nc1ccccc1)(c1ccccc1)c1ccccc1 | 31.3 | 27.3 | 31.7 | 29.4 |  |  |  |  |  |  |  |  |  |  |  |  | 
2 | O=C(Nc1ccc([N+](=O)[O-])cc1)c1cc2ccccc2cc1O | 0.909 |  |  | 6.41 | 0.39 | 8.89 | 0.235 | 0.444 | 2.43 | 0.618 | > 100 | 0.314 | 3.13 | 0.321 | 1.64 | 2.47 | 
3 | c1cc(C2N3CCCN2CC3)ccn1 (stereo unspecified) | > 100 |  |  | > 100 |  | > 100 |  |  | > 100 |  | 67.7 |  | > 100 |  | 89.2 |  | 
4 | Cc1sc2c(c1C)C(c1ccc(Cl)cc1)=N[C@@H](CC(=O)Nc1ccc(O)cc1)c1nnc(C)n1-2 | 8.21 |  |  | 14.3 | 0.245 | 28.2 | 0.179 | 4.17 | 24.2 | 0.169 | 27.2 | 9.45 | 69.7 | 0.399 | 19 | 0.146 | 
5 | CCCCCCCCCCC(CN(CC)CC)C(O)c1ccccc1 (stereo unspecified) | 5.04 |  |  | 3.7 | 1.84 | 4.31 | 2.13 | 2.02 | 4.21 | 1.75 | 4.07 | 1.9 | 3.7 | 1.72 | 3.23 | 1.81 | 
6 | CN(C)C(=S)/N=c1\ssc(=S)n1Cc1ccccn1 | > 19.8 |  |  | 21.4 |  |  |  |  |  |  |  |  |  |  |  |  | > 100
7 | COc1cc(CCC(=O)NS(=O)(=O)c2ccccc2)cc(OC)c1OC | > 100 | > 100 | > 100 | > 100 |  |  |  |  |  |  |  |  |  |  |  |  | > 100
8 | O=C(Cc1ccccc1)NN1C(=O)C(Cl)C1c1ccccc1 (stereo unspecified) | > 100 |  | > 100 | > 100 |  |  |  |  |  |  |  |  |  |  |  |  | 50.5
9 | CCCCCCCCCCCCCCCCCCOCC1(COP(=O)([O-])OCC[N+](C)(C)C)CCCO1 (stereo unspecified) | 5.24 | 3.13 | 11.9 | 3.63 |  |  |  |  |  |  |  |  |  |  |  |  | 16.6
10 | COC(=O)C1CCC(N2C(=O)CCC2C(=O)OC)=N1 (stereo unspecified) | > 100 | > 100 | > 100 | > 100 |  |  |  |  |  |  |  |  |  |  |  |  | > 100
11 | O=C(Cc1nc2ccccc2s1)C(=O)Nc1ccc(Cl)cc1Cl |  | > 100 | > 100 | > 100 |  |  |  |  |  |  |  |  |  |  |  |  | > 100
12 | COc1ccc(Cn2cc3c(c2-c2ccccc2)CCc2cncnc2-3)cc1 | 5.7 |  |  | 17.2 | 3.47 | 27 | 2.04 | 4.1 | 14.7 | 1.58 | 6.51 | 3.99 | 19.8 | 2.49 | 11.8 | 4.44 | 
13 | c1cc(-c2cnn3nc(N4CCOCC4)ccc23)nc(NC2CC2)n1 | 18.9 |  |  | > 23.5 | 8.08 | > 25 | 7.5 | 8.15 | > 25 | 8.12 | > 22.8 | 8.25 | > 25 | 9.94 | > 25 | 8.06 | 
14 | O=C(O)C1=C(Cl)c2ccccc2S1(=O)=O | > 100 |  | > 100 | > 100 |  |  |  |  |  |  |  |  |  |  |  |  | > 100
15 | CCCCCCCCCCCCOC(=S)NC | > 100 | 34.4 | 33.9 |  |  |  |  |  |  |  |  |  |  |  |  |  | 31.4
16 | CSc1ccc(C(=O)/C=C/c2ccc(F)cc2)cc1 | > 100 |  |  | > 100 | 96.4 | > 100 | 48.9 | 40 | > 100 | > 100 | > 100 | > 100 | > 100 | 33.5 | 78.3 | > 100 | 
17 | C=C1C(=O)O[C@H]2[C@H]1CC/C(COC(=O)NCc1cccc(OC)c1)=C\CC[C@@]1(C)O[C@@H]21 | 4.51 |  |  | 3.41 | 2.31 | 6.38 | 1.21 | 1.51 | 3.21 | 13 | 37.8 | 3.07 | 12.3 | 1.5 | 3.22 | 1.68 | 
18 | COc1ccc2nc(C3=CN(C4OC(CO)C(O)C(O)C4O)C4C=CC=CC34)sc2c1 (stereo unspecified) |  |  |  | > 100 | 45 | > 100 |  | 33.9 | > 100 | 34.4 | 94.4 | > 100 | > 100 | 37.1 | > 100 | 27.2 | 
19 | C/C(CC(=O)Nc1ccc(NC(=O)/C(C)=N/NS(=O)(=O)c2ccc(C)cc2)cc1)=N\NS(=O)(=O)c1ccc(C)cc1 | > 100 |  | > 100 | > 100 |  |  |  |  |  |  |  |  |  |  |  |  | > 100
20 | C=C(CN(CCN1CCOCC1)CC(=C)c1ccc(C(=O)Nc2ccccc2N)cc1)c1ccc(C(=O)Nc2ccccc2N)cc1 | > 50 |  |  | 20.2 | 8.33 | 47.6 | 13 | 8.56 | 21.2 | 5.55 | 42.8 | 1.31 | 4.92 | 8.67 | 28.5 | 8.21 | 
21 | CO[C@H]1/C=C/C[C@H](C)[C@@H](C)S(=O)(=O)NC(=O)c2ccc3c(c2)N(C[C@@H]2CC[C@H]21)C[C@@]1(CCCc2cc(Cl)ccc21)CO3 | 0.655 |  |  | 6.6 | 2.75 | 10.8 | 0.246 | 2.23 | 6.99 | 1.54 | 7.24 | 2.23 | 6.6 | 1.48 | 3.14 | 2.7 | 
22 | Cc1cc(S(=O)(=O)Nc2nc3ccsc3c(=O)n2Cc2ccccc2)c(S)cc1Cl | > 100 |  |  | > 100 | 52.4 | > 100 | > 100 | 28 | 89.8 | 42.3 | > 100 | 67.8 | > 100 | 29.3 | 91.6 | 37.5 | 
